Results published in PubChem BioAssay AID248 (DTP/NCI, 2004).
Values joined by “and” are separate entries in the source; they are usually repeats but may differ in a detail not shown here. Identical values can stand only once. Inconclusive results and toxic doses are left out. Rule as the data show it: active = T/C of 150% or more; inactive = T/C below 125%.

System: L1210 leukemia ip in BDF1 mice, survival T/C
Experiment: NCI In Vivo Anticancer Drug Screen. Data for tumor model L1210 Leukemia (intraperitoneal) in B6D2F1 (BDF1) mice
Details: endpoint: mean survival time, higher = longer survival
Summary of the method: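 Ratio derived from survival: compound-dosed mice over vehicle-dosed mice, all bearing a transplantable tumor.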

[1] = dose: 100.0 mg/kg/injection, schedule: Q01DX001 (ip), vehicle: saline
[2] = dose: 200.0 mg/kg/injection, schedule: Q01DX001 (ip), vehicle: saline
[3] = dose: 400.0 mg/kg/injection, schedule: Q01DX001 (ip), vehicle: saline
[4] = dose: 100.0 mg/kg/injection, schedule: Q04DX003 (ip), vehicle: saline
[5] = dose: 200.0 mg/kg/injection, schedule: Q04DX003 (ip), vehicle: saline
[6] = dose: 400.0 mg/kg/injection, schedule: Q04DX003 (ip), vehicle: saline
[7] = dose: 50.0 mg/kg/injection, schedule: Q01DX001 (ip), vehicle: saline
[8] = dose: 100.0 mg/kg/injection, schedule: Q04DX003 (ip), vehicle: Klucel (hydroxypropylcellulose) (HPC)
[9] = dose: 200.0 mg/kg/injection, schedule: Q04DX003 (ip), vehicle: Klucel (hydroxypropylcellulose) (HPC)
[10] = dose: 400.0 mg/kg/injection, schedule: Q04DX003 (ip), vehicle: Klucel (hydroxypropylcellulose) (HPC)
[11] = dose: 100.0 mg/kg/injection, schedule: Q01DX009 (ip), vehicle: Klucel (hydroxypropylcellulose) (HPC)
[12] = dose: 200.0 mg/kg/injection, schedule: Q01DX009 (ip), vehicle: Klucel (hydroxypropylcellulose) (HPC)
[13] = dose: 400.0 mg/kg/injection, schedule: Q01DX009 (ip), vehicle: Klucel (hydroxypropylcellulose) (HPC)
[14] = dose: 100.0 mg/kg/injection, schedule: Q01DX009 (ip), vehicle: saline with Tween-80
[15] = dose: 200.0 mg/kg/injection, schedule: Q01DX009 (ip), vehicle: saline with Tween-80

Measured: T/C

CCCCN(C#N)CC(C)(C)[N+](=O)[O-]
inactive: dose: 111.0 mg/kg/injection, schedule: Q01DX Z (ip), vehicle: methylcellulose (MC) 103 % of control | dose: 166.0 mg/kg/injection, schedule: Q01DX Z (ip), vehicle: methylcellulose (MC) 97 % of control | dose: 250.0 mg/kg/injection, schedule: Q01DX Z (ip), vehicle: methylcellulose (MC) 108 % of control

CCCCCSB(SCCCCC)c1ccccc1
inactive: [1] 89 % of control | [2] 89 % of control | [3] 92 % of control

Cn1c(=O)c2ccc(C(=O)O)cc2c(=O)n1C
inactive: dose: 12.5 mg/kg/injection, schedule: Q04DX003 (ip), vehicle: saline 97 % of control | dose: 25.0 mg/kg/injection, schedule: Q04DX003 (ip), vehicle: saline 98 % of control | dose: 50.0 mg/kg/injection, schedule: Q04DX003 (ip), vehicle: saline 103 % of control | [4] 106 % of control | [5] 92 % of control | [6] 98 % of control

CN(CC(C)(C)C(O)c1ccccc1)C(=O)c1ccccc1 (stereo not drawn)
inactive: [4] 102 % of control | [5] 100 % of control | [6] 96 % of control

CNC(=S)N/N=C/c1cc(Cl)cc(Cl)c1
inactive: dose: 100.0 mg/kg/injection, schedule: Q01DX001 (ip), vehicle: other 102 % of control | dose: 200.0 mg/kg/injection, schedule: Q01DX001 (ip), vehicle: other 102 % of control | dose: 400.0 mg/kg/injection, schedule: Q01DX001 (ip), vehicle: other 98 % of control

C1CCC2(CC1)CCNCC2
inactive: [7] 102 % of control

Cc1ccc(S(=O)(=O)N(C)c2ccc(CC(=O)O)cc2)cc1
inactive: [8] 97 % of control | [9] 95 % of control | [10] 95 % of control

CN(C)C(=Nc1ccc(NC(=O)c2ccc(C(=O)Nc3ccc(N=C(Nc4ccccc4)N(C)C)cc3)cc2)cc1)Nc1ccccc1
inactive: dose: 1.5 mg/kg/injection, schedule: Q01DX Z (ip), vehicle: carboxymethylcellulose (CMC) 95 % of control | dose: 3.0 mg/kg/injection, schedule: Q01DX Z (ip), vehicle: carboxymethylcellulose (CMC) 97 % of control | dose: 6.0 mg/kg/injection, schedule: Q01DX Z (ip), vehicle: carboxymethylcellulose (CMC) 107 % of control | dose: 12.0 mg/kg/injection, schedule: Q01DX Z (ip), vehicle: carboxymethylcellulose (CMC) 89 % of control

CCCCC(C)C(C#N)(NC(C)=O)C(=O)OCC (stereo not drawn)
inactive: dose: 75.0 mg/kg/injection, schedule: Q04DX003 (ip), vehicle: saline 109 % of control | dose: 150.0 mg/kg/injection, schedule: Q04DX003 (ip), vehicle: saline 98 % of control | dose: 300.0 mg/kg/injection, schedule: Q04DX003 (ip), vehicle: saline 91 % of control

N/N=C(/C=N/N)C(O)CO (stereo not drawn)
inactive: dose: 25.0 mg/kg/injection, schedule: Q01DX001 (ip), vehicle: saline with Tween-80 95 % of control | dose: 50.0 mg/kg/injection, schedule: Q01DX001 (ip), vehicle: saline with Tween-80 98 % of control | dose: 100.0 mg/kg/injection, schedule: Q01DX001 (ip), vehicle: saline with Tween-80 89 % of control and 92 % of control | dose: 400.0 mg/kg/injection, schedule: Q01DX001 (ip), vehicle: saline with Tween-80 92 % of control

CCCCCCCCCC[As](=O)(O)CCCCCCCCCC
inactive: [7] 107 % of control | [1] 103 % of control | [2] 103 % of control | [3] 115 % of control

CCSc1nc(N)c(Br)c(Sc2nc(N)nc3nc[nH]c23)n1
inactive: dose: 100.0 mg/kg/injection, schedule: Q01DX Z (ip), vehicle: methylcellulose (MC) 98 % of control

CC(C)(C)C(=O)Nc1ccc(F)cc1
inactive: [11] 110 % of control | [12] 94 % of control | [13] 116 % of control

CCC1(O)CC(OC2CC(N(C)C)C(OC3CC(O)C(O)C(C)O3)C(C)O2)c2c(cc3c(c2O)C(=O)c2c(O)ccc(O)c2C3=O)C1C(=O)OC (stereo not drawn)
inactive: dose: 1.6 mg/kg/injection, schedule: Q01DX001 (ip), vehicle: saline 108 % of control | dose: 3.2 mg/kg/injection, schedule: Q01DX001 (ip), vehicle: saline 104 % of control | dose: 6.4 mg/kg/injection, schedule: Q01DX001 (ip), vehicle: saline 105 % of control

COc1cc(/C=N/NC(=O)c2cc(OC)c(OC)c(OC)c2)ccc1O
inactive: [14] 93 % of control | [15] 93 % of control | dose: 400.0 mg/kg/injection, schedule: Q01DX009 (ip), vehicle: saline with Tween-80 90 % of control

OCC(Oc1ccccc1)C(O)C(O)C(CO)Oc1ccccc1 (stereo not drawn)
inactive: [11] 103 % of control | [12] 103 % of control | [13] 95 % of control

CCOc1ccc(/C=N/NS(=O)(=O)c2ccc(C)cc2)cc1
inactive: [11] 104 % of control | [8] 91 % of control | [12] 100 % of control | [9] 92 % of control | [13] 94 % of control | [10] 92 % of control

O=C(O)CCl
inactive: [7] 98 % of control | [1] 104 % of control

Nc1cccc(OCCCOc2ccccc2)c1
inactive: dose: 100.0 mg/kg/injection, schedule: Q01DX001 (ip), vehicle: Klucel (hydroxypropylcellulose) (HPC) 94 % of control | dose: 200.0 mg/kg/injection, schedule: Q01DX001 (ip), vehicle: Klucel (hydroxypropylcellulose) (HPC) 97 % of control | dose: 400.0 mg/kg/injection, schedule: Q01DX001 (ip), vehicle: Klucel (hydroxypropylcellulose) (HPC) 94 % of control

CCOC(=O)/C=C(/CC(=O)OCC)OCC
inactive: dose: 50.0 mg/kg/injection, schedule: Q01DX005 (ip), vehicle: saline 104 % of control | dose: 100.0 mg/kg/injection, schedule: Q01DX005 (ip), vehicle: saline 94 % of control | dose: 200.0 mg/kg/injection, schedule: Q01DX005 (ip), vehicle: saline 96 % of control | dose: 400.0 mg/kg/injection, schedule: Q01DX005 (ip), vehicle: saline 100 % of control

CN(C(=N)N)c1ccc(C(=O)Oc2ccc([N+](=O)[O-])cc2)cc1
inactive: dose: 50.0 mg/kg/injection, schedule: Q01DX009 (ip), vehicle: water 90 % of control | dose: 100.0 mg/kg/injection, schedule: Q01DX009 (ip), vehicle: water 97 % of control and 105 % of control | dose: 100.0 mg/kg/injection, schedule: Q04DX003 (ip), vehicle: water 103 % of control | dose: 200.0 mg/kg/injection, schedule: Q01DX009 (ip), vehicle: water 96 % of control and 100 % of control | dose: 200.0 mg/kg/injection, schedule: Q04DX003 (ip), vehicle: water 100 % of control

O=S(=O)(O)c1cc(Cl)cc(N=Nc2ccc(O)cc2O)c1O
inactive: [7] 98 % of control | [1] 98 % of control | [2] 104 % of control | [3] 98 % of control

Cc1ccc(S(=O)(=O)NC(=O)Nc2cc(Cl)c(Cl)cc2C)cc1
inactive: dose: 50.0 mg/kg/injection, schedule: Q01DX009 (ip), vehicle: saline 100 % of control and 108 % of control | [14] 94 % of control and 91 % of control | dose: 100.0 mg/kg/injection, schedule: Q01DX009 (ip), vehicle: saline 97 % of control and 88 % of control | dose: 100.0 mg/kg/injection, schedule: Q04DX002 (ip), vehicle: saline with Tween-80 100 % of control and 110 % of control | [15] 93 % of control | dose: 200.0 mg/kg/injection, schedule: Q01DX009 (ip), vehicle: saline 94 % of control and 86 % of control | dose: 200.0 mg/kg/injection, schedule: Q04DX002 (ip), vehicle: saline with Tween-80 93 % of control and 96 % of control | dose: 400.0 mg/kg/injection, schedule: Q01DX009 (ip), vehicle: saline 93 % of control | dose: 400.0 mg/kg/injection, schedule: Q04DX002 (ip), vehicle: saline with Tween-80 100 % of control and 104 % of control
